From article PMC6271906, “Sesquiterpenes from the Brazilian Red Alga Laurencia dendroidea J. Agardh” (Molecules, 2014) come the findings set out here.

For data set [1], the system named is TNF-α production by LPS-activated RAW 264.7 macrophages. The data set can be described thus: TNF-α production by LPS-stimulated RAW 264.7 macrophages (L929 fibroblast bioassay). The settings on record: Mus musculus, RAW264.7, 24 h incubation. It is filed as cell-based, murine. Here is the method:
(§1) The murine peritoneal macrophage cell line RAW 264.7 was obtained from the American Type Culture Collection (ATCC, Rockville, MD, USA) and grown at 37 °C and 5% CO2 in DMEM F-12 that was supplemented with 10% FCS and gentamicin (50 µg/mL). RAW 264.7 cells (1 × 10^5 cells/well) were seeded in flat bottom 96-well tissue culture plates (Corning Inc., Corning, NY, USA) in the presence or absence of various concentrations of the samples (100, 20 and 4 µg/mL) and/or LPS (Escherichia coli 055:B5; Sigma-Aldrich). After a 24 h incubation period, culture supernatants were collected for NO and TNF-α assays. Nitrite, a stable NO metabolite, was determined by using the Griess test. As a positive control of inhibitory activity, intact, untreated macrophages were used. As a negative control, macrophages stimulated with 1 µg/mL LPS were used. […] TNF-α was measured by an L929 fibroblast bioassay. This assay system uses murine L929 cells sensitive to TNF-α. For this, murine fibroblast cell line L929 cells (ATCC) (2 × 10^5 cells/well) were seeded in flat bottom 96-well tissue culture plates (Corning Inc.) 24 h before of being inoculated with macrophage culture supernatant and actinomycin D (2 µg/mL) added. After 24 h of incubation with macrophage culture supernatant, L929 viability was assayed by MTT [3-(4,5-dimethylthiazol-2-yl)-2,5diphenyltetrazolium bromide] method. The cytokine levels were calculated by using a purified recombinant mouse cytokine to obtain a standard curve that correlates cellular viability and TNF-α concentration.

Data set [2] relates to RAW 264.7 cells. The data set can be described thus: Lactate dehydrogenase (LDH) cytotoxicity assay. It is filed as cell-based, murine. The note with it: for toxicity (LDH release), in words: RAW 264.7 cells, cell viability by LDH release. On the procedure:
(§2) LDH assay was used to evaluate the toxicity of the studied samples towards macrophage cultures. The release of LDH (cytoplasmic enzyme lactate dehydrogenase) from RAW 264.7 cells treated with samples was determined using 50 µL of cell culture supernatant collected 24 h after the treatment, as described in the previous section. The LDH release, which represents an indirect indication of cytotoxicity, was determined colorimetrically using a commercial kit (Doles Reagentes e Equipamentos para Laboratorios Ltda., Goiânia, Brazil). The specific release was calculated as a percentage of the controls: non-treated macrophages as the negative control (O.D. 0.249, cytotoxicity 1.99% ± 0.62%) and 1% Triton X-100 (Vetec Chem., Duque de Caxias, Brazil) detergent treated macrophages as the positive control (O.D. 1.278, cytotoxicity 99.95% ± 2.26%). Final concentrations of DMSO, used as the carrier solvent for the samples, were tested in parallel as a control. Cytotoxicity was shown as percentage of controls. Tests were performed in triplicate and the mean value and standard deviation were calculated.
In general terms: Release of lactate dehydrogenase indicates damage to the cell membrane.

Data set [3] is described as follows: Lactate dehydrogenase (LDH) cytotoxicity assay. The settings on record: mouse, RAW 264.7 macrophage cells; LDH release from RAW 264.7 cells, 24 h after treatment. The format is cell-based, murine. Here is the method: as §2
Data set [4] has as its system NO production by LPS-activated RAW 264.7 macrophages. The data set can be described thus: NO production by LPS-stimulated RAW 264.7 macrophages (Griess test). It is filed as cell-based, murine. The settings on record: Mus musculus, RAW264.7; for IC50: LPS-stimulated RAW 264.7 macrophages, 24 h incubation. On the procedure: as §1
A general note: Nitrite, measured by Griess reagent, commonly stands in for NO production.

The test system of data set [5] is Mycobacterium bovis BCG strain Moreau. The data set can be described thus: microbe, parasite or virus in culture. It is filed as cell-based. The note with it: Mycobacterium tuberculosis variant bovis BCG, 168 h, read-out: IC50 M. bovis BCG.

For orientation: IC50 means the concentration at which inhibition is half-maximal. The term inhibition denotes the drop in the measured response relative to a control, in per cent. A higher inhibition goes with a response far below the control.

As to `C=C1C[C@@H](O)CC(C)(C)[C@]12CCC(C)=C(Cl)C2` [Compound 3, Debromoelatol], the IC50 came out at 134 ± 7.4 µM in data set [1], 69.1 ± 4.7 µM in data set [4] and 82.4 ± 4.7 µM in data set [5]. In addition, the “toxicity (LDH release), in words” value in data set [2] is recorded as “no toxicity whatsoever”. In addition, in data set [3], the IC50 at 24 h is more than 392 µM.
As to `CC1CCC23C1CCC2(C)CC(C)C3(C)O` (stereo not drawn) [Compound 5, (1S*,2S*,3S*,5S*,8S*,9S*)-2,3,5,9-tetramethyltricyclo[6.3.0.01.5]undecan-2-ol], the IC50 in data set [1] was 393.4 ± 0.4 µM; in data set [4] it was 74.6 ± 5.8 µM; in data set [5] it was 205 ± 7.6 µM. Moreover, in data set [2], the “toxicity (LDH release), in words” value is “no toxicity whatsoever”. Further, the IC50 at 24 h in data set [3] came to 416 ± 4.9 µM.
For `C=C1CC[C@@H](Br)C(C)(C)[C@]12CC[C@](C)(Br)[C@@H](Cl)C2` [Compound 4, obtusane], in that order: more than 251 µM, 44.9 ± 3 µM, 44.7 ± 4 µM, “only moderately toxic” and 197.2 ± 1 µM.
On to Triton X-100 [reference compound], for which the “cytotoxicity (specific LDH release, percentage of controls)” value in data set [2] (1% detergent, positive control, RAW 264.7 macrophages) is recorded as 99.95% ± 2.26.
In data set [4], `[H]/N=C(/NC)NCCC[C@H](N)C(=O)O` [L-NMMA, L-N-monomethyl-arginine, reference compound] had an IC50 of 71.3 ± 4.4 µM. In data set [4] (positive control at 20 µg/mL), this compound displayed an inhibition at 20 µg/mL of 59.2%.
On to `C=C1CC(O)C(Br)C(C)(C)C12CCC(C)(O)C(Cl)C2` (centres unmarked) [Compound 2], for which the IC50 in data set [1] is more than 284 µM; in data set [4] it was more than 284 µM; in data set [5], 80.2 ± 4.3 µM. Besides, the “toxicity (LDH release), in words” value in data set [2] is recorded as “no toxicity whatsoever”. In data set [3], this compound displayed an IC50 at 24 h of more than 284 µM.
